Experimental data taken from publication doi:10.1101/2022.01.20.477145v2 (biorxiv, 2022).

Target: NL-PRMT5 (NLuc-PRMT5) (Homo sapiens, UniProt O14744)
Assay: NanoBRET target engagement, displacement of CBH-002
Type: cell-based

Chain of NL-PRMT5 (NLuc-PRMT5) (O14744 2-637): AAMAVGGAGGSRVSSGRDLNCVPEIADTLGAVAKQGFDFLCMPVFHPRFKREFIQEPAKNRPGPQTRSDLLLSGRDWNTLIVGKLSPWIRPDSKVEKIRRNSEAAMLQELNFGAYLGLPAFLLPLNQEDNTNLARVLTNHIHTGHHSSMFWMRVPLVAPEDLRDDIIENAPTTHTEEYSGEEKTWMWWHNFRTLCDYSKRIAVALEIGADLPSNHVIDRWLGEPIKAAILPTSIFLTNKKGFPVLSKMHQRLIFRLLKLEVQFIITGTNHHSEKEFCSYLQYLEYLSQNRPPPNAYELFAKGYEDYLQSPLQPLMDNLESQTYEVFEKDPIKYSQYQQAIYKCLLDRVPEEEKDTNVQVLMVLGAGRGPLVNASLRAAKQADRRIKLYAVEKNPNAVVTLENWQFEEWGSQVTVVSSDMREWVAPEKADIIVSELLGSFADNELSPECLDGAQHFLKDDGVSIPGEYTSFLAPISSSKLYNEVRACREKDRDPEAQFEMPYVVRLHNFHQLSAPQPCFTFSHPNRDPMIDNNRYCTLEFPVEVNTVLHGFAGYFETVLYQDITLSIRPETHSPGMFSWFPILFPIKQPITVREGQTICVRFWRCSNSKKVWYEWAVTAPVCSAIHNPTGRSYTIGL

EC50: 0.3 ± 0.1 µM
SMILES: Nc1ncnc2c1ccn2[C@@H]1O[C@H]([C@H](O)c2ccccc2)[C@@H](O)[C@H]1O [LLY-283]
